This assay concerns the target T1, purified recombinant human PARP (Homo sapiens, UniProt P09874).
T1 construct: purchased Trevigan (Gaithersburg, Md.)
As to the kind of experiment: PARP enzyme assay (IC50), [3H]NAD incorporation. The format is biochemical. To be noted: approximate IC50 values; 25° C., 15 minutes. The procedure:
The reaction is initiated by incubating the mixture at 25° C. After 15 minutes of incubation. the reaction is terminated by adding 500 microliters of ice cold 20% (w/v) trichloroacetic acid. The precipitate formed is transferred onto a glass fiber filter (Packard Unifilter-GF/B) and washed three times with ethanol. After the filter is dried, the radioactivity is determined by scintillation counting.

T1 sequence (P09874 whole entry): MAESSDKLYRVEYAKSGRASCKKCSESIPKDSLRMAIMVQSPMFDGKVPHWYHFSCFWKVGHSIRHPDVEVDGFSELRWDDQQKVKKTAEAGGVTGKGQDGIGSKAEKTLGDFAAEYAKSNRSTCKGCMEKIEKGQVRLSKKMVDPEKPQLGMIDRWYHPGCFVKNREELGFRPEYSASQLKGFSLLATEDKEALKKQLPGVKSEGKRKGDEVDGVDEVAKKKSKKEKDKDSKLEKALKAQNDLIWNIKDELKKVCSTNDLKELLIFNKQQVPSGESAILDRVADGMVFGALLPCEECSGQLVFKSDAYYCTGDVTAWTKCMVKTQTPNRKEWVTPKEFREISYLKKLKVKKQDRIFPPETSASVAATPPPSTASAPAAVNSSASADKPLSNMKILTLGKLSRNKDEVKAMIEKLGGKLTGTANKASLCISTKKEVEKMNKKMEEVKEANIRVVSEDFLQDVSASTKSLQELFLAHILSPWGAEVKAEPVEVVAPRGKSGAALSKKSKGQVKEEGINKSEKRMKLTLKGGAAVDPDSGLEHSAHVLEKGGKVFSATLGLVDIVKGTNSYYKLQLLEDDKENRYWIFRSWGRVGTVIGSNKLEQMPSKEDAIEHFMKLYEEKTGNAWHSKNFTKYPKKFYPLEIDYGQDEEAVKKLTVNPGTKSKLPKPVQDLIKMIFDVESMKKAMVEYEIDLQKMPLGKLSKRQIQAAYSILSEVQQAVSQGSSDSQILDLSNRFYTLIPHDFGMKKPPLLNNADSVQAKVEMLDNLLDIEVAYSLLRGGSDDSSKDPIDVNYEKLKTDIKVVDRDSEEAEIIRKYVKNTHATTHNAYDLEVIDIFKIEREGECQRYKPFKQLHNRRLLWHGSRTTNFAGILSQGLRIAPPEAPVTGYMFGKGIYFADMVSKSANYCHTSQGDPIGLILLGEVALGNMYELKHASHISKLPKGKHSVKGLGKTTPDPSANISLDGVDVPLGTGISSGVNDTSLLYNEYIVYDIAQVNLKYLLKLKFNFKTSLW

As usually defined, the IC50 is the point on the concentration scale where inhibition reaches its midpoint. For `Cc1ccc(S(=O)(=O)Nc2ccc3[nH]c(=O)c4ccccc4c3c2)cc1` [Compound 1], the IC50 was found to be 0.12 µM. With `O=C(c1ccc2c(c1)[nH]c(=O)c1ccccc12)N1CCOCC1` [Compound 2], the IC50 came to 100 µM.

As for `O=c1[nH]c2ccc(S(=O)(=O)NCCN3CCOCC3)cc2c2ccccc12` [Compound 4], the 50% inhibitory concentration (IC50) was 0.14 µM. Then `O=C(CCl)Nc1ccc2[nH]c(=O)c3ccccc3c2c1` [Compound 5], with 0.08 µM; and `C[N+](C)(C)CC(=O)Nc1ccc2[nH]c(=O)c3ccccc3c2c1` [Compound 7], with 0.03 µM; and `O=c1[nH]c2ccc(S(=O)(=O)NCCN(CCO)CCO)cc2c2ccccc12` [Compound 8], with 0.06 µM. With `O=C(NCCN1CCOCC1)c1ccc2c(c1)[nH]c(=O)c1ccccc12` [Compound 9] the figure was 0.04 µM; with `O=C(O)[C@H]1CCCN1C(=O)c1ccc2c(c1)[nH]c(=O)c1ccccc12` [Compound 10], 0.09 µM; with `O=C(NCc1ccccc1)c1ccc2c(c1)[nH]c(=O)c1cc(F)ccc12` [Compound 16], 0.399 µM. Then `O=C(NCCc1ccccc1)c1ccc2c(c1)[nH]c(=O)c1cc(F)ccc12` [Compound 18], with 0.15 µM. As for `COC(=O)[C@@H]1CCCN1C(=O)c1ccc2c(c1)[nH]c(=O)c1cc(F)ccc12` [Compound 19], the IC50 was 0.157 µM. Then `Cc1cccc2c(=O)[nH]c3cc(C(F)(F)F)c(NC(=O)CCl)cc3c12` [Compound 20], with 0.033 µM; and `O=C(O)[C@@H]1CCCN1C(=O)c1ccc2c(c1)[nH]c(=O)c1cc(F)ccc12` [Compound 21], with 0.124 µM; and `O=c1[nH]c2ccc(S(=O)(=O)O)cc2c2ccccc12` [Compound 22], with 0.115 µM. As to `CC(NC(=O)c1ccc2c(c1)[nH]c(=O)c1ccccc12)C(=O)O` (centres unmarked) [Compound 24], the IC50 stood at 0.056 µM. Then `O=C(O)CCC(NC(=O)c1ccc2c(c1)[nH]c(=O)c1ccccc12)C(=O)O` (centres unmarked) [Compound 25], with 0.272 µM. With `CCC(C)C(NC(=O)c1ccc2c(c1)[nH]c(=O)c1ccccc12)C(=O)O` (centres unmarked) [Compound 26] the figure was 0.711 µM; with `O=C(O)CCC(=O)Nc1ccc2[nH]c(=O)c3ccccc3c2c1` [Compound 27], 0.111 µM. Then `NCCCCC(NC(=O)c1ccc2c(c1)[nH]c(=O)c1ccccc12)C(=O)O` (centres unmarked) [Compound 28], with 0.341 µM; and `CCCCC(NC(=O)c1ccc2c(c1)[nH]c(=O)c1ccccc12)C(=O)O` (centres unmarked) [Compound 29], with 0.054 µM; and `O=C(NC(CO)C(=O)O)c1ccc2c(c1)[nH]c(=O)c1ccccc12` (centres unmarked) [Compound 30], with 0.083 µM. Turning to `O=C(Nc1ccc2[nH]c(=O)c3ccccc3c2c1)c1ccc(F)cc1` [Compound 31], the IC50 was 0.069 µM. Then `C[C@H](NC(=O)c1ccc2c(c1)[nH]c(=O)c1ccccc12)C(=O)O` [Compound 32], with 0.036 µM. With `O=C(N[C@@H](Cc1ccc(F)cc1)C(=O)O)c1ccc2c(c1)[nH]c(=O)c1ccccc12` [Compound 33] the figure was 0.045 µM; with `O=C(N[C@@H](Cc1ccccc1)C(=O)O)c1ccc2c(c1)[nH]c(=O)c1ccccc12` [Compound 34], 0.065 µM; with `O=C(N[C@@H](CS)C(=O)O)c1ccc2c(c1)[nH]c(=O)c1ccccc12` [Compound 35], 0.083 µM.

Consider `NCCCC[C@H](NC(=O)c1ccc2c(c1)[nH]c(=O)c1ccccc12)C(=O)O` [Compound 37], for which the IC50 turned out to be 0.088 µM.

`O=C(N[C@H](C(=O)O)c1ccccc1)c1ccc2c(c1)[nH]c(=O)c1ccccc12` [Compound 38]: the IC50 is 0.031 µM. With `CC(C)[C@H](NC(=O)c1ccc2c(c1)[nH]c(=O)c1ccccc12)C(=O)O` [Compound 39] the figure was 0.025 µM; with `O=C(NCCN1CCOCC1)c1ccc2c(c1)[nH]c(=O)c1ccccc12` [Compound 40], 0.035 µM; with `COC(=O)[C@@H]1CCCN1C(=O)c1ccc2c(c1)[nH]c(=O)c1ccccc12` [Compound 41], 0.118 µM.

Regarding `O=C(NC(Cc1ccc2ccccc2c1)C(=O)O)c1ccc2c(c1)[nH]c(=O)c1ccccc12` (centres unmarked) [Compound 42], the 50% inhibitory concentration (IC50) was 0.019 µM.

`CN1CCN(S(=O)(=O)c2ccc3c(c2)[nH]c(=O)c2cc(F)ccc23)CC1` [Compound 43]: the IC50 amounted to 0.108 µM. `O=c1[nH]c2cc(S(=O)(=O)NCCN3CCOCC3)ccc2c2ccc(F)cc12` [Compound 44]: the IC50 was 0.019 µM.

For the compound `CC(=O)Nc1cc2c(cc1C)[nH]c(=O)c1ccccc12` [Compound 45], the IC50 amounted to 0.229 µM. With `Cc1cc2[nH]c(=O)c3ccccc3c2cc1NC(=O)CCl` [Compound 47] the figure was 0.152 µM; with `COC(=O)c1ccc2c(c1)[nH]c(=O)c1cc(F)ccc12` [Compound 48], 0.037 µM; with `O=C(NCCOCCO)c1ccc2c(c1)[nH]c(=O)c1ccccc12` [Compound 50], 0.08 µM. For the compound `NCCN1CCN(S(=O)(=O)c2ccc3[nH]c(=O)c4ccccc4c3c2)CC1` [Compound 51], the concentration for half-maximal inhibition (IC50) is 0.099 µM.

As for `Cc1cc2[nH]c(=O)c3ccccc3c2cc1NC(=O)c1cccc(F)c1` [Compound 52], the half-inhibitory concentration (IC50) came out at 1.2 µM. Take `O=c1[nH]c2ccc(S(=O)(=O)NCCN3CCCC3)cc2c2ccccc12` [Compound 53]: the concentration for half-maximal inhibition (IC50) was 0.074 µM.

With `Cc1cc2[nH]c(=O)c3ccccc3c2cc1NC(=O)C[N+](C)(C)C` [Compound 54], the IC50 amounted to 0.195 µM. With `O=c1[nH]c2ccc(S(=O)(=O)NCc3ccncc3)cc2c2ccccc12` [Compound 55] the figure was 0.094 µM; with `Cc1ccc(S(=O)(=O)Nc2cc3c(cc2C)[nH]c(=O)c2ccccc23)cc1` [Compound 56], 5.9 µM; with `O=C(NCCCc1ccccc1)c1ccc2c(c1)[nH]c(=O)c1cc(F)ccc12` [Compound 57], 0.415 µM. With `COC(=O)C1CCCN1S(=O)(=O)c1ccc2[nH]c(=O)c3ccccc3c2c1` (centres unmarked) [Compound 58] the figure was 1.1 µM.

Regarding `Cc1cc2[nH]c(=O)c3ccccc3c2cc1NC(=O)CCc1ccccc1` [Compound 59], the IC50 stood at 7.5 µM. Then `COc1ccc(S(=O)(=O)Nc2cc3c(cc2C)[nH]c(=O)c2ccccc23)cc1` [Compound 60], with 11.5 µM; and `O=C(c1ccc(F)cc1)C1CCN(S(=O)(=O)c2ccc3[nH]c(=O)c4ccccc4c3c2)CC1` [Compound 61], with 0.319 µM. With `Cc1cc2[nH]c(=O)c3ccccc3c2cc1NC(=O)Cc1ccc(F)cc1` [Compound 62] the figure was 0.449 µM; with `Cc1cc2[nH]c(=O)c3ccccc3c2cc1NC(=O)C(C)Br` (centres unmarked) [Compound 63], 0.174 µM; with `O=c1[nH]c2ccc(S(=O)(=O)NC3CN4CCC3CC4)cc2c2ccccc12` (centres unmarked) [Compound 64], 0.043 µM. With `CCOC(=O)C1CCN(S(=O)(=O)c2ccc3[nH]c(=O)c4ccccc4c3c2)CC1` [Compound 65] the figure was 0.2 µM; with `CC(C)N(C(=O)c1ccc2c(c1)[nH]c(=O)c1ccccc12)C(C)C` [Compound 66], 0.099 µM; with `O=c1[nH]c2ccc(S(=O)(=O)N3CCCC(CO)C3)cc2c2ccccc12` (centres unmarked) [Compound 67], 0.164 µM. `CC(=O)NCCN1CCN(S(=O)(=O)c2ccc3[nH]c(=O)c4ccccc4c3c2)CC1` [Compound 68]: the half-inhibitory concentration (IC50) amounted to 0.142 µM.

For the origin of these results see patent US6723733B2, “Sulfonamide and carbamide derivatives of 6(5H)phenanthridinones and their uses” (Guilford Pharmaceuticals, Inc., priority 2000, dated 2004).
